What was measured:
[1] = system: MDCK/kidney non-cancerous cells; assay: MTT-cell proliferation assay on non-cancerous cell line; type: cell-based; details: Canis lupus familiaris, MDCK, 48 h, 48 h drug exposure, mean ± SEM
Excerpt: (§1) The potential anti-cancer activity of all fourteen final synthesized compounds was investigated through MTT cytotoxic assay against two different human solid cancerous cell lines; A549/lung and MDA-MB-231/breast adenocarcinoma. The adopted cell-proliferation assay assessed % cell viability in relation to the reducing activity of cellular NADPH-dependent cellular oxidoreductases on tetrazolium dye, MTT [2,5-diphenyl-3-(4,5-dimethylthiazol-2-yl)tetrazolium bromide salt], for furnishing an easily quantified insoluble chromogenic formazan. For each drug concentration, 0.1, 1, 10, and 100 μM, the % cell-viability was estimated relative to negative control following a complete 48 h of drug treatment. Both 5-fluorouracil (5-FU) and doxorubicin (DOX) were set as positive index comparators. Moreover, the safety profile of the synthesized compounds was further investigated by examining their in-vitro cytotoxicity on non-cancerous cell line; MDCK/kidney cells.
(§2) Evaluating the cytotoxicity of tested compounds on two cancer cell lines (A549/lung and MDA-MB-231/breast adenocarcinoma) and non-cancerous (MDCK/kidney cells) was performed while adopting the formerly described method with small alterations. Cancer cell lines were propagated within Dulbecco’s Modified Eagle Medium-High Glucose (Cat.#: P0103; DMEM_High Glucose with Na.Pyruvate and stable Glutamine, Biowest^TM, Nuaillé, France), while MDA-MB-231 cells were propagated within RPMI-1640 L-Glutamine medium (Cat.#:12-604F; Lonza-Verviers SPRL^TM, Verviers, Belgium). The culturing media were supplemented via 1% antibiotic-antimycotic 100X (Cat.#: L0010; Biowest^TM, Nuaillé, France) and 10% fetal bovine serum (FBS) (Cat.#: EU-000-H; Seralab^TM, West Sussex, UK). Cells were seeded as triplicates within 96-well plate, at 1 × 10^4 cells per well density, after being counted and viability checked using the trypan blue staining solution (Cat.# ab233465; Abcam^TM, Cambridge, MA, USA). Seeded cells were permitted to adhere for 24 h under 5% CO2 and at 37 °C incubating conditions. The assigned compounds were dissolved in 500 µL DMSO affording the stock solution (100 mM) being ready for more diluting within the whole medium to obtain the compound’s final concentrations; 0.1, 1, 10, 100 µM for cell treatments. […] Following 24 h compound-cell treatment, the medium was substituted by fresh one and cells were permitted to develop for 48 h. At four hours prior the end of incubation, 10 μL MTT Sigma-Aldrich^TM (5 mg/mL in PBS 1X without magnesium and calcium; Cat.# 17-516F, Lonza-Verviers^TM, Basel, Switzerland) were added to all wells. Following the complete 48 h incubation, 100 μL DMSO was all added to all wells where they were subsequently centrifuged at 4000 rpm for 5 min allowing the formazan crystals of formazan to precipitate. Color was established and intensities were recorded at 490 nm using Synergy-Neo2® Hybrid MultiMode Plate Reader (BioTek^TM, Winooski, VT, USA), while subtracting the multi-well plates background absorbance at 690 nm. Percentage cell viability was estimated using the subsequent formula: % cell-viability = (average absorbance of treated wells/average absorbance of controls) × 100.

[2] = system: MDA-MB-231/breast cancer cells; assay: MTT-cell proliferation assay; type: cell-based, human; details: for IC50: 48 h drug exposure, mean of three experiments ± SEM
Excerpt: as §1, §2

[3] = system: A549/lung adenocarcinoma cells; assay: MTT-cell proliferation assay; type: cell-based, human; details: for IC50: Homo sapiens, A549, 48 h drug exposure, mean of three experiments ± SEM
Excerpt: as §1, §2

A549/lung adenocarcinoma = assay: Morphological assessment; type: cell-based, human; details: 0.1-100 µM (5-FU 100 µM), 48 h, phase-contrast microscope

| Compound | melting point [°C] | IC50 ([2]; Homo sapiens, MDA-MB-231, 48 h) [µM] | other results |
| --- | --- | --- | --- |
| CC(C)c1ccc(-c2nn(-c3ccccc3)cc2C=NNC(=O)c2cc3ccccc3[nH]2)cc1 [Compound 8c, N′-((3-(4-isopropylphenyl)-1-phenyl-1H-pyrazol-4-yl)methylene)-1H-indole-2-carbohydrazide] | 219 to 221 | 12.8 ± 3.5 | IC50 [1]: 87.3 ± 3 µM; IC50 [3]: 11.6 ± 2.57 µM |
| O=C(NN=Cc1ccccc1)c1cc2ccccc2[nH]1 [Compound 7a, N′-benzylidene-1H-indole-2-carbohydrazide] | 111 to 113 |  |  |
| Cc1cccc(NCc2nc3ccccc3[nH]2)c1 [Compound 3a, N-((1H-benzo[d]imidazol-2-yl)methyl)-3-methylaniline] | 139 to 141 | 29.7 ± 4.03 |  |
| O=c1[nH]cc(F)c(=O)[nH]1 [Compound 5-FU, 5-fluorouracil, reference compound] |  |  | cell morphology alterations (A549/lung adenocarcinoma): epithelial-mesenchymal transition was observed |
| CN(C)c1ccc(C=NNC(=O)c2cc3ccccc3[nH]2)cc1 [Compound 7c, N′-(4-(dimethylamino)benzylidene)-1H-indole-2-carbohydrazide] | 90 to 92 |  |  |
| O=C(NN=Cc1cccnc1)c1cc2ccccc2[nH]1 [Compound 7d, N′-(pyridin-3-ylmethylene)-1H-indole-2-carbohydrazide] | 252 to 254 | 17.4 ± 3.23 |  |
| CCc1ccc(-c2nn(-c3ccccc3)cc2C=NNC(=O)c2cc3ccccc3[nH]2)cc1 [Compound 8a, N′-((3-(4-ethylphenyl)-1-phenyl-1H-pyrazol-4-yl)methylene)-1H-indole-2-carbohydrazide] | 254 to 256 | 12.7 ± 0.84 | IC50 [1]: 73.9 ± 2.3 µM; IC50 [3]: 23.1 ± 1.45 µM |
| Cc1nn(-c2ccc([N+](=O)[O-])c([N+](=O)[O-])c2)c(Cl)c1C=NNC(=O)c1cc2ccccc2[nH]1 [Compound 8f, N′-((5-chloro-1-(3,4-dinitrophenyl)-3-methyl-1H-pyrazol-4-yl)methylene)-1H-indole-2-carbohydrazide] | 204 to 206 | 31.5 | IC50 [2]: 21.6 ± 0.28 µM |
| Oc1ccc(NCc2nc3ccccc3[nH]2)cc1 [Compound 3d, 4-(((1H-benzo[d]imidazol-2-yl)methyl)amino)phenol] | 139 to 141 |  |  |
| Brc1cccc(NCc2nc3ccccc3[nH]2)c1 [Compound 3c, N-((1H-benzo[d]imidazol-2-yl)methyl)-3-bromoaniline] | 139 to 141 |  | effect on cell proliferation ([2]; 100 µM drug concentration): enhanced cell proliferation |
| COc1ccc(C=NNC(=O)c2cc3ccccc3[nH]2)cc1 [Compound 7b, N′-(4-methoxybenzylidene)-1H-indole-2-carbohydrazide] | 104 to 106 | 43.8 ± 1.09 | IC50 [1]: 28.9 ± 1.49 µM |
| Cc1cccc(C)c1NCc1nc2ccccc2[nH]1 [Compound 3b, N-((1H-benzo[d]imidazol-2-yl)methyl)-2,6-dimethylaniline] | 159 to 161 |  | effect on cell proliferation ([3]; 0.1-100 µM): irregular effects with tendency to increase the cell proliferation |
| CC(C)Cc1ccc(-c2nn(-c3ccccc3)cc2C=NNC(=O)c2cc3ccccc3[nH]2)cc1 [Compound 8d, N′-((3-(4-isobutylphenyl)-1-phenyl-1H-pyrazol-4-yl)methylene)-1H-indole-2-carbohydrazide] | 229 to 231 | 21.6 | IC50 [2]: 31.5 ± 4.66 µM |

— PMC7912796, “Design, Synthesis, Anticancer Activity, and Solid Lipid Nanoparticle Formulation of Indole- and Benzimidazole-Based Compounds as Pro-Apoptotic Agents Targeting Bcl-2 Protein” (Pharmaceuticals, 2021)
